From patent publication US10905148B2, “Systems and methods for monitoring of blood lactate and targeting of blood lactate via nutritional support” (Run Them Sweet LLC, priority 2012, dated 2021)

Legend:
[1] = tested on: lipases and esterases in human plasma; settings: cited from earlier work
[2] = aqueous conditions; cited from earlier work
[3] = tested on: lactate dehydrogenase in red blood cells and the lung parenchyma; settings: due to lactate dehydrogenase in red blood cells and lung parenchyma; cited from earlier work
[4] = cited from earlier work
[5] = infusions of 2N Na+-Pyruvate into swine; cited from earlier work
[6] = Osmolality of infusion solutions; assay type: physicochemical
Protocol: In its simplest form, the MCC cocktail would be sodium-L-(+)-Lactate prepared by titrating L-(+)-Lactic acid with NaOH. The following describe such procedures: (24, 52, 55-57). Briefly, the MCC infusion cocktail is prepared by mixing concentrated (30-88%) L-(+)-lactic acid solution (e.g., Sigma-Aldrich or PCCA) in 2 N NaOH to pH 4.8. In the example provided, the starting point is a 30% stock lactic acid solution: 300 g 30% lactic acid stock solution is titrated with 133.3 g 2N NaOH and diluted to 1,000 ml with water. This will produce a 11.2% weight-by-volume (“w/v”) MCC cocktail (sodium-L-(+)-Lactate) with an osmolality approximating 2,000 mOsm/l. Depending on the stock lactic acid solution used, a NaOH titrating solution>2 N may be necessary to neutralize stock lactic acid without exceeding the intended volume. Regardless of the specifics of acid titration, a 1.72% Na^+-lactate aqueous solution is isosmotic (308 mOsm/l); consequently, as initially mixed the above described MCC is far too concentrated to be given in a peripheral vein and will need to be diluted to less than 1,000 mOsm/l (a 5.6% Na^+-lactate solution). In a peripheral arm vein and a 5.0-5.6% Na^+-lactate MCC should be given with normal (0.9%, 308 mOsm/l) saline or another isosmotic solution such as […] (dextrose) in water, commonly called D5W (see more below).
In another version of the simplest form, the MCC cocktail would be sodium-L-(+)-Lactate prepared from the dry, powdered salt in deionized water to the concentration intended [e.g., for an isosmotic solution: 154 mM lactate (plus 154 mM Na^+) total osmolarity 308 mOsm/l], and infused in the above-stated amounts to raise arterial [lactate] to the intended levels.
State of the art is to provide parenteral nutritive support to patients using 5% dextrose (D5W, glucose in water, vide supra). Because glucose (dextrose) has a molecular weight of 180, osmolality of D5W is 278 mM, which in the low range of normal plasma osmolality ([…]). Even though the glucose concentration in D5W is 50 times greater than homeostatic in plasma, in terms of its isosmotic effect with glucose alone being the only solute, D5W is isosmotic. Mixing equal isosmotic solutions such as equal volumes of 154 mM Sanguisal-L and D5W glucose will produce an osmolality in the high end of the normal range. As noted earlier, this slightly elevated osmolality because of sodium content will draw fluid from tissues into the vascular compartment, thus mitigating swelling due to injury (15).

[7] = lactate clamp procedure, exogenous lactate

Arginyl lactate
dissociation of individual units at neutral pH ([1]; neutral pH as exists in human plasma): dissociate spontaneously

CC(=O)C(=O)O [pyruvate]
stability in aqueous solutions [2]: spontaneous degradation
conversion in circulation/blood [3]: rapidly converted to lactate

CC(O)C(=O)O (stereo not drawn) [lactate, 2-hydroxy-propionate]
safety of route and amount of vascular lactate administration ([4]; approximately 3 mg/kg/min, vascular): safe
blood pH [4, 7]: raises pH
effects on plasma electrolytes [4, 7]: without major effects
side effects ([4]; oral or intravenous administration): no apparent side effects except mild alkalosis

CC(=O)C(=O)[O-].[Na+] [Na^+-Pyruvate, sodium-L-(+)-Pyruvate]
arterial [lactate] [5]: 8 mM
arterial [pyruvate] [5]: 3.5 mM

CC(O)C(=O)OCC(COC(=O)C(C)O)OC(=O)C(C)O (stereo not drawn) [Glycerol tri-lactate, glycerol tri-lactate]
dissociation of individual units in human plasma ([1]; lipases and esterases in human plasma): rapidly dissociate

C[C@H](O)C(=O)[O-].[Na+] [sodium-L-(+)-Lactate]
higher blood lactate levels seen/used without ill effects ([4]; sodium lactate MCC infusion): 6 mM
total osmolarity ([6]; 154 mM lactate plus 154 mM Na+, isosmotic solution): 308 mOsm/l
osmolality ([6]; 1.72% aqueous solution, isosmotic): 308 mOsm/l
osmolality ([6]; 5.6% solution): 1,000 mOsm/l
osmolality ([6]; 11.2% w/v MCC cocktail): ~2,000 mOsm/l
